Results reported in patent US7192746B2, “α-Isomaltosyltransferase, process for producing the same and use thereof” (Kabushiki Kaisha Hayashibara Seibutsu Kagaku Kenkyujo, priority 2000, dated 2007).

Columns and labels:
[1] = test system: α-isomaltosyl-transferring enzyme from Bacillus globisporus C11; assay: Formation of cyclotetrasaccharide from components A, B and C; type: biochemical; conditions: Enzyme of Strain C11, 35° C., 8 hours
Description: (§1) Using a purified α-isomaltosyl-transferring enzyme, the formation of cyclotetrasaccharide from the above-identified components A, B and C was examined as follows: One percent (w/v) of an aqueous solution (pH 6.0) of the component A (3-O-α-isomaltosylpanose represented by Chemical Formula 1), the component B (4-O-α-isomaltosylpanose represented by Chemical Formula 2), or the component C (1-O-α-isomaltosyl-β-panoside represented by Chemical Formula 3) was prepared into a substrate solution. To each of the resulting solutions was added one unit/g substrate of a purified specimen of α-isomaltosyl-transferring enzyme from Bacillus globisporus C9 obtained by the method in Experiment 4, or Bacillus globisporus C11 obtained by the method in Experiment 7, followed by enzymatic reaction at 35° C. for eight hours. Thereafter, the resulting mixtures were analyzed on HPLC for saccharide composition (%).

[2] = test system: α-isomaltosyl-transferring enzyme from Bacillus globisporus C9; assay: as above; type: biochemical; conditions: Enzyme of Strain C9, 35° C., 8 hours
Description: as §1

[3] = 1% (w/v) substrate, pH 6.0, 1 unit/g substrate

For `OC[C@H]1O[C@H](OC[C@H]2O[C@H](O[C@@H]3O[C@H](CO)[C@@H](O[C@H]4O[C@H](CO[C@H]5O[C@H](CO)[C@@H](O)[C@H](O)[C@H]5O)[C@@H](O)[C@H](O)[C@H]4O)[C@H](O)[C@H]3O)[C@H](O)[C@@H](O)[C@@H]2O)[C@H](O)[C@@H](O)[C@@H]1O` [Component C, 1-O-α-isomaltosyl-β-panoside], the “Saccharide composition, remaining Substrate” value [1, 3] was 56.0%, the “Saccharide composition, Cyclotetrasaccharide” value [1] was 5.9% and the “Saccharide composition, Glucose” value [1] was 0.2%. The “Saccharide composition, Others” value [1] was 37.9%, the “Saccharide composition, remaining Substrate” value [2, 3] was 55.8% and the “Saccharide composition, Cyclotetrasaccharide” value [2] was 6.0%. For the same compound, the “Saccharide composition, Glucose” value [2] was 0.2% and the “Saccharide composition, Others” value [2] was 38.0%.
